The values below come from patent US11911364B2, “Positive allosteric modulators of GABAA receptor” (PEPTICOM LTD., priority 2018, dated 2024).

The target of the assay is T1, human GABA receptor (subunits α1β3γ2) (Homo sapiens, UniProt P14867+P18507+P28472).
T1 construct: expressed in transfected cells; host or cells: HEK293
The assay can be described thus: Manual whole-cell patch-clamp recording of GABA receptor-mediated Cl- current in HEK293 cells. Format: cell-based. As to conditions: for mode of action at the human GABAA receptor: human GABAA receptor α1β3γ2, electrophysiological recordings; for effect on human GABA receptor-mediated Cl- current: human α1β3γ2 receptor expressed in HEK293 cells, manual whole-cell patch-clamp. The procedure:
All the compounds of the present invention were tested and validated using electrophysiological recordings on the human GABAA receptor comprising of the following subunits α1β3γ2. The compounds of the present invention are used in the preparation of a neuroactive pharmaceutical composition, in improving sperm motility or in labeling of biomolecules.
The human GABA receptor (subunits α1β3γ2) was expressed in HEK293 cells in manual whole-cell patch-clamp settings.
These compounds of the present invention are experimentally shown to specifically bind to the GABAA receptor. Therefore, they are capable of activating, inhibiting or modulating the GABAA receptor. These compounds were derived in-silico and tested in-vitro in cell cultures. […] The human GABA receptor (subunits α1β3γ2) used in these experiments was expressed in the HEK293 cells in manual whole-cell patch-clamp settings.

T1 sequence (P14867 28-456): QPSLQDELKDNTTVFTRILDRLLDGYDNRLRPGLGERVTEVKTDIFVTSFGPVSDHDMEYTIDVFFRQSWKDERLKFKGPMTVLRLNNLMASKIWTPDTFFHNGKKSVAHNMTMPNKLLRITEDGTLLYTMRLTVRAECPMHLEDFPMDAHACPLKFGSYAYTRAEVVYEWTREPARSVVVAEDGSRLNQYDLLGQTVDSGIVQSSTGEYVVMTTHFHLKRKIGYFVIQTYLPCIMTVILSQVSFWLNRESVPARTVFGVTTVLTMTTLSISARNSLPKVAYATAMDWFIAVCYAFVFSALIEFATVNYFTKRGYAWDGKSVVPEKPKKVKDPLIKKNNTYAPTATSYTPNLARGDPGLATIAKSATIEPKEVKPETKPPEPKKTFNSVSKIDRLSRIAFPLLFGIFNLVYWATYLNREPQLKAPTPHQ
T1 sequence (P28472 26-473): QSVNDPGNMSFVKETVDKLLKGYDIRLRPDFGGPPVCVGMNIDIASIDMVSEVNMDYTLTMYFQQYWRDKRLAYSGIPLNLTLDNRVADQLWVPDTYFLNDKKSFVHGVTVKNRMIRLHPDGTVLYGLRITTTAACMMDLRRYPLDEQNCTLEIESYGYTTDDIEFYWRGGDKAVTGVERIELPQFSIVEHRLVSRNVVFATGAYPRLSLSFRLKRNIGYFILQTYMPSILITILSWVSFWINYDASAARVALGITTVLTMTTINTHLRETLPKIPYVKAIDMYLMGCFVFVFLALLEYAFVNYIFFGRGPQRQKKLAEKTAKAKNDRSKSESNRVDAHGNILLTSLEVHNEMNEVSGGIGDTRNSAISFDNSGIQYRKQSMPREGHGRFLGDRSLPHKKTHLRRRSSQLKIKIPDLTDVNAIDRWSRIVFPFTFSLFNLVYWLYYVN
T1 sequence (P18507 40-475): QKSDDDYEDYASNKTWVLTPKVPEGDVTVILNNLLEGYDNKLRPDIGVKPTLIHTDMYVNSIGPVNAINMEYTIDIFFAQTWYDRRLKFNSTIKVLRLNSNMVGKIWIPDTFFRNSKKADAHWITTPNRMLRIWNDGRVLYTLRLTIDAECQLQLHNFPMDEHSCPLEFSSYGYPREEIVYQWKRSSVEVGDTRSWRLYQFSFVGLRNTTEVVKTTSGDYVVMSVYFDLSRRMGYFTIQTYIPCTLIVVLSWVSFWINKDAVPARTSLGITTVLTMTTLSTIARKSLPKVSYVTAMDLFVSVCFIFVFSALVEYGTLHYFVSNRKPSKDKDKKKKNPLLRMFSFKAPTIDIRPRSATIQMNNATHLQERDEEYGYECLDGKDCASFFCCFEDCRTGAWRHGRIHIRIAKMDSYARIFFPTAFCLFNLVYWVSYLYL

`CC(C)CC(NC(=O)c1ccc(S(N)(=O)=O)o1)c1cccs1` (stereo not shown) [Compound 1]: the “mode of action at the human GABAA receptor” value is given as “positive allosteric modulation” and the “effect on human GABA receptor-mediated Cl- current” value is listed as “selective potentiation”.
Taken in the same sequence, the figures for `O=C(O)CC1(c2ccc(Br)cc2)CNC1` [Compound 2] were “inhibiting” and “selective potentiation”.
